Values quoted from earlier work as cited in US12364989B2, “High throughput method and system for analyzing the effects of agents on planaria” (priority 2019, dated 2025).

Key:
planarians = settings: regenerating compared with intact animals
planaria [1] = test system: planaria
planaria [2] = settings: Hagstrom et al., Toxicological Sciences 2015

C[S+](C)[O-] [DMSO, Dimethyl sulfoxide]
sensitivity of regenerating planarians (planarians): increased sensitivity

CN(C)C=O [N,N-dimethylformamide]
effect on auricle regeneration (planaria [1]; morphological endpoint, Zhang et al., Toxicological and Industrial Health 2013): effect

CCO [ethanol]
sensitivity of regenerating planarians (planarians): increased sensitivity

CC1(C)C(C=C(Cl)Cl)C1C(=O)OCc1cccc(Oc2ccccc2)c1 (centres unmarked) [permethrin]
blastema growth rate (planaria [2]): did not affect | eye reappearance (planaria [1]; Hagstrom et al., Toxicological Sciences 2015): did delay
